Source: ChEMBL document CHEMBL4680302, “Biologic-like In Vivo Efficacy with Small Molecule Inhibitors of TNFα Identified Using Scaffold Hopping and Structure-Based Drug Design Approaches” (J Med Chem, 2020)

Key:
[1] = molecular target: T1, CD40 ligand (Homo sapiens, UniProt P29965); experiment: Inhibition of CD40L (unknown origin)
T1 sequence (P29965 whole entry): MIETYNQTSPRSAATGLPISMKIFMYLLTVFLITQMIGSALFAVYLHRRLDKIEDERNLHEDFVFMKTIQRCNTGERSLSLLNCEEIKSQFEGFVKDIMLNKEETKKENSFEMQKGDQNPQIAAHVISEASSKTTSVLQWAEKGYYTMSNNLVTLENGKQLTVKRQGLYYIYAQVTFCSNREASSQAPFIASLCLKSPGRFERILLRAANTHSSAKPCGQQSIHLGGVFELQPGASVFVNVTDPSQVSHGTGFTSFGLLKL

[2] = molecular target: T2, Cytochrome P450 1A2 (Homo sapiens, UniProt P05177); experiment: Inhibition of recombinant CYP1A2 (unknown origin); format: ADME
T2 sequence (P05177 whole entry): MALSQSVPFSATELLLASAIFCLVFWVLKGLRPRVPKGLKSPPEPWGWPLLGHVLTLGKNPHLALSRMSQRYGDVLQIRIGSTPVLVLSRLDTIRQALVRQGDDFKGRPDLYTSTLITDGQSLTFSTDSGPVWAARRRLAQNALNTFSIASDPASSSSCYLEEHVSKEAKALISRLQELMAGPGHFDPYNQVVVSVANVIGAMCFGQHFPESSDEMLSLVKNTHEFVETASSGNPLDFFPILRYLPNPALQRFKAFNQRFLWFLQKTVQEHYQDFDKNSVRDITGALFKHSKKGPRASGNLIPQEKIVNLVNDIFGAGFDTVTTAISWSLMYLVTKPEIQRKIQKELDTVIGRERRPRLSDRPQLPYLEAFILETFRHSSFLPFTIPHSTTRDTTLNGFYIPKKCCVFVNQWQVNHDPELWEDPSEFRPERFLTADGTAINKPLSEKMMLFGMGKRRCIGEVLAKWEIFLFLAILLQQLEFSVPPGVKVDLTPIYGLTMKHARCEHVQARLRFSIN

- IC50 [1]: > 10 µM
- IC50 [2]: > 20 µM
Structure (SMILES): Cc1nc2cc(F)c(-c3cnc(C(C)(C)O)nc3)nc2c(N[C@H](C)c2cc(C#N)ccc2F)c1Cl
